Series [1] relates to Escherichia coli. Kind of series: Antibacterial activity against Escherichia coli ATCC 35218 assessed as inhibition of bacterial growth measured after 18 to 20 hrs by broth microdilution method. It counts as functional. To be noted: time 18-20 hrs. For orientation: Broth dilution looks for growth in wells or tubes with falling amounts of substance.
Series [2] relates to Escherichia coli. Nature of the series: Antibacterial activity against Escherichia coli 14-2 assessed as inhibition of bacterial growth measured after 18 to 20 hrs by broth microdilution method. It counts as functional. Particulars: time 18-20 hrs.
The subject of series [3] is Escherichia coli. Kind of series: Antibacterial activity against Escherichia coli 14-4 assessed as inhibition of bacterial growth measured after 18 to 20 hrs by broth microdilution method. To be noted: time 18-20 hrs. It counts as functional.
In series [4] the test system is Klebsiella pneumoniae. Kind of series: Antibacterial activity against Klebsiella pneumoniae 15-1 assessed as inhibition of bacterial growth measured after 18 to 20 hrs by broth microdilution method. It counts as functional. To be noted: time 18-20 hrs.
Series [5] has as its system Klebsiella pneumoniae. Kind of series: Antibacterial activity against Klebsiella pneumoniae 15-4 assessed as inhibition of bacterial growth measured after 18 to 20 hrs by broth microdilution method. Particulars: time 18-20 hrs. It counts as functional.
The test system of series [6] is Klebsiella pneumoniae. Kind of series: Antibacterial activity against Klebsiella pneumoniae 15-5 assessed as inhibition of bacterial growth measured after 18 to 20 hrs by broth microdilution method. To be noted: time 18-20 hrs. The format is functional.
The subject of series [7] is Acinetobacter baumannii. Nature of the series: Antibacterial activity against Acinetobacter baumannii 17-2 assessed as inhibition of bacterial growth measured after 18 to 20 hrs by broth microdilution method. Particulars: time 18-20 hrs. It counts as functional.
Series [8] concerns Acinetobacter baumannii. Nature of the series: Antibacterial activity against Acinetobacter baumannii 17-8 assessed as inhibition of bacterial growth measured after 18 to 20 hrs by broth microdilution method. To be noted: time 18-20 hrs. It counts as functional.
The subject of series [9] is Pseudomonas aeruginosa. Kind of series: Antibacterial activity against Pseudomonas aeruginosa 17-1 assessed as inhibition of bacterial growth measured after 18 to 20 hrs by broth microdilution method. The format is functional. To be noted: time 18-20 hrs.
The subject of series [10] is Pseudomonas aeruginosa. Kind of series: Antibacterial activity against Pseudomonas aeruginosa 19-5 assessed as inhibition of bacterial growth measured after 18 to 20 hrs by broth microdilution method. It counts as functional. Particulars: time 18-20 hrs.
Series [11] deals with Pseudomonas aeruginosa. Kind of series: Antibacterial activity against Pseudomonas aeruginosa T-2022 assessed as inhibition of bacterial growth measured after 18 to 20 hrs by broth microdilution method. The format is functional. To be noted: time 18-20 hrs.
Series [12] concerns Pseudomonas aeruginosa. Nature of the series: Antibacterial efficacy against multi drug resistant Pseudomonas aeruginosa T-2022-D2-048 infected in cyclophosphamide-induced neutropenic thigh infection ICR mouse model assessed as decrease in bacterial burden at 40 mg/kg, iv dose measured after 24 hrs. It counts as functional, organism-based.
A short description of series [13]: AUC (0 to t) in Sprague-Dawley rat at 10 mg/kg, iv measured upto 24 hrs LC-MS/MS analysis. The format is ADME, organism-based. Particulars: Sprague-Dawley, in vivo.
Series [14] is described as follows: MRT in Sprague-Dawley rat at 10 mg/kg, iv measured upto 24 hrs LC-MS/MS analysis. It counts as ADME, organism-based. To be noted: in vivo.
Series [15] is described as follows: Half life in Sprague-Dawley rat at 10 mg/kg, iv measured upto 24 hrs LC-MS/MS analysis. It counts as ADME, organism-based. Particulars: in vivo.
The nature of series [16]: Clearance in Sprague-Dawley rat at 10 mg/kg, iv measured upto 24 hrs LC-MS/MS analysis. It counts as ADME, organism-based. To be noted: in vivo.
The nature of series [17]: Volume of distribution at steady state in Sprague-Dawley rat at 10 mg/kg, iv measured upto 24 hrs LC-MS/MS analysis. It counts as ADME, organism-based. Particulars: in vivo, read-out: Vdss.
The subject of series [18] is HepG2. Kind of series: Cytotoxicity against human HepG2 cells assessed as inhibition of cell growth incubated for 24 hrs by CCK8 method. It counts as functional, cell-based. To be noted: HepG2, 24 h. (In general: Formazan colour is commonly taken as a measure of viable cells.)
For series [19], the system named is HepG2. Kind of series: Cytotoxicity against human HepG2 cells assessed as inhibition of cell growth at 100 uM incubated for 24 hrs by CCK8 method relative to control. It counts as functional.
Series [20] in a line: Cytotoxicity against HEK293T cells assessed as inhibition of cell growth incubated for 24 hrs by CCK8 method. It counts as toxicity, cell-based, HEK-293T. Particulars: human.
Series [21] can be described thus: Cytotoxicity against HEK293T cells assessed as inhibition of cell growth at 100 uM incubated for 24 hrs by CCK8 method relative to control. It counts as toxicity, cell-based, HEK-293T. To be noted: human.
Series [22] deals with Jurkat. Nature of the series: Cytotoxicity against human Jurkat cells assessed as inhibition of cell growth incubated for 24 hrs by CCK8 method. The format is functional, cell-based.
Series [23] deals with Jurkat. Nature of the series: Cytotoxicity against human Jurkat cells assessed as inhibition of cell growth at 100 uM incubated for 24 hrs by CCK8 method relative to control. It counts as functional.

Converted amounts (≈) assume the structure as drawn. The source made the active and inactive calls. The calls are words filed in the database; no cut-off is given here.

One may read the MIC as the lowest concentration that inhibits growth of the organism. Turning to `C[C@@H](O)[C@H]1C(=O)N2C(C(=O)O)=C(S[C@@H]3CN[C@H](C(=O)N(C)C)C3)[C@H](C)[C@H]12` [MEROPENEM], the MIC in the series with Escherichia coli [1] is 0.06 µg/mL (≈ 0.156 µM); in the series with Escherichia coli [2], 2 µg/mL (≈ 5.22 µM); with Escherichia coli [3], 2 µg/mL (≈ 5.22 µM); with Klebsiella pneumoniae [4] it was more than 64 µg/mL; with Klebsiella pneumoniae [5], more than 64 µg/mL; in the series on Klebsiella pneumoniae [6] it was more than 64 µg/mL. For the same molecule, the MIC in the series with Acinetobacter baumannii [7] was more than 64 µg/mL; with Acinetobacter baumannii [8] it was more than 64 µg/mL; with Pseudomonas aeruginosa [9] it was 8 µg/mL (≈ 20.9 µM); with Pseudomonas aeruginosa [10] it was 32 µg/mL (≈ 83.4 µM); in the series on Pseudomonas aeruginosa [11], more than 64 µg/mL. The outcome with Pseudomonas aeruginosa [12] was Active.
As a reminder, the AUC(0-t) is the area under the concentration-time curve up to a stated or last time point. Lower therefore signals low exposure. What is called MRT is a mean duration of stay, worked out from the concentration-time curve. Broadly, the half-life is how long it takes for the measured level to halve. A high value points to slow loss. By clearance is commonly meant the volume of plasma or blood freed of the substance per unit of time. The low end stands for inefficient removal, the high end for efficient removal. In series [13], `CCCCSSCc1ccc(-c2ncc(C(=O)N[C@@H](CCN)C(=O)N(C)[C@@H]3C(=O)N[C@@H](C)C(=O)N[C@H](C(=O)NCC#N)Cc4ccc(OCCN)c(c4)-c4cc3ccc4OCCN)c(C)n2)cc1` came in with an AUC(0-t) at 24 h of 46300 ng·h/mL. In series [14], this molecule came in with an MRT of 1.27 h. The same molecule gave a half-life in series [15] of 1.04 h. In series [16], this molecule had a clearance of 3.6 mL/min/kg. The Vd in series [17] came to 0.273 L/kg.
As a reminder, the IC50 is the concentration needed to halve the response being measured. By inhibition is commonly meant the relative decrease from the control value, in per cent. In the case of `CCCCSSCc1ccc(-c2ncc(C(=O)N[C@@H](CCN)C(=O)N(C)[C@@H]3C(=O)N[C@@H](C)C(=O)N[C@H](C(=O)NCC#N)Cc4ccc(OCCN)c(c4)-c4cc3ccc4OCCN)c(C)n2)cc1.O=C(O)C(F)(F)F.O=C(O)C(F)(F)F.O=C(O)C(F)(F)F.O=C(O)C(F)(F)F`, the MIC with Escherichia coli [1], in the series with Escherichia coli [2], with Escherichia coli [3], in the series on Klebsiella pneumoniae [4], in the series with Klebsiella pneumoniae [5] and in the series on Klebsiella pneumoniae [6] was not above 0.03 µg/mL in each case. Besides, the MIC with Acinetobacter baumannii [7] was found to be 0.5 µg/mL; in the series on Acinetobacter baumannii [8], 0.125 µg/mL; in the series with Pseudomonas aeruginosa [9] it was 8 µg/mL; with Pseudomonas aeruginosa [10], 8 µg/mL. Moreover, the IC50 with HepG2 [18] and with Jurkat [22] was more than 100 µM each time. For the same molecule, the results for the inhibition at 100 µM in the series on HepG2 [19] and in the series on Jurkat [23] were -3.33% and 50.6%, respectively. The IC50 at 24 h in series [20] is more than 100 µM. Besides, the inhibition at 24 h, 100 µM in series [21] is 41%.
As for `Cc1nc(-c2ccc(SSC(C)(C)C)cc2)ncc1C(=O)N[C@@H](CCN)C(=O)N(C)[C@@H]1C(=O)N[C@@H](C)C(=O)N[C@H](C(=O)O)Cc2ccc(OCCN)c(c2)-c2cc1ccc2OCCN.O=C(O)C(F)(F)F.O=C(O)C(F)(F)F.O=C(O)C(F)(F)F.O=C(O)C(F)(F)F`, the MIC with Escherichia coli [1] was not above 0.03 µg/mL; with Escherichia coli [2] it was not above 0.03 µg/mL; in the series on Escherichia coli [3], 0.06 µg/mL; with Klebsiella pneumoniae [4], not above 0.03 µg/mL; with Klebsiella pneumoniae [5], not above 0.03 µg/mL; in the series on Klebsiella pneumoniae [6] it was not above 0.03 µg/mL. Moreover, the MIC in the series on Acinetobacter baumannii [7] was determined as 0.5 µg/mL; with Acinetobacter baumannii [8] it was 1 µg/mL; with Pseudomonas aeruginosa [9], 32 µg/mL; in the series on Pseudomonas aeruginosa [10], 16 µg/mL. Also, the IC50 in the series on HepG2 [18] and with Jurkat [22] was more than 100 µM throughout. Besides, the inhibition at 100 µM was -4.95% in the series on HepG2 [19] and 44.8% in the series on Jurkat [23]. In [20], the IC50 at 24 h is more than 100 µM. Moreover, in series [21], the inhibition at 24 h, 100 µM is 26.1%.
As for `CCCSSCc1ccc(-c2ncc(C(=O)N[C@@H](CCN)C(=O)N(C)[C@@H]3C(=O)N[C@@H](C)C(=O)N[C@H](C(=O)NCC#N)Cc4ccc(OCCN)c(c4)-c4cc3ccc4OCCN)c(C)n2)cc1.O=C(O)C(F)(F)F.O=C(O)C(F)(F)F.O=C(O)C(F)(F)F.O=C(O)C(F)(F)F`, the MIC in the series with Escherichia coli [1] was not above 0.03 µg/mL; with Escherichia coli [2] it was not above 0.03 µg/mL; in the series on Escherichia coli [3], not above 0.03 µg/mL; in the series on Klebsiella pneumoniae [4], not above 0.03 µg/mL; with Klebsiella pneumoniae [5], 0.06 µg/mL; with Klebsiella pneumoniae [6] it was not above 0.03 µg/mL. For the same molecule, the MIC was found to be 0.25 µg/mL in the series with Acinetobacter baumannii [7], 0.125 µg/mL with Acinetobacter baumannii [8], 4 µg/mL with Pseudomonas aeruginosa [9] and 8 µg/mL in the series with Pseudomonas aeruginosa [10]. The IC50 in the series with HepG2 [18] and in the series with Jurkat [22] was more than 100 µM each time. For the same molecule, the inhibition at 100 µM is -3.61% with HepG2 [19] and 32.5% in the series on Jurkat [23]. In addition, the IC50 at 24 h in series [20] was more than 100 µM. Also, in series [21], the inhibition at 24 h, 100 µM is 29.9%.
As to `Cc1nc(-c2ccc(CSSCC(C)C)cc2)ncc1C(=O)N[C@@H](CCN)C(=O)N(C)[C@@H]1C(=O)N[C@@H](C)C(=O)N[C@H](C(=O)NCC#N)Cc2ccc(OCCN)c(c2)-c2cc1ccc2OCCN.O=C(O)C(F)(F)F.O=C(O)C(F)(F)F.O=C(O)C(F)(F)F.O=C(O)C(F)(F)F`, the MIC in the series on Escherichia coli [1] was not above 0.03 µg/mL; in the series on Escherichia coli [2], not above 0.03 µg/mL; in the series with Escherichia coli [3] it was not above 0.03 µg/mL; in the series on Klebsiella pneumoniae [4] it was not above 0.03 µg/mL; in the series on Klebsiella pneumoniae [5] it was 0.06 µg/mL; in the series on Klebsiella pneumoniae [6], 0.06 µg/mL. Besides, the MIC with Acinetobacter baumannii [7] is 0.5 µg/mL; in the series with Acinetobacter baumannii [8], 0.125 µg/mL; in the series on Pseudomonas aeruginosa [9], 4 µg/mL; in the series on Pseudomonas aeruginosa [10] it was 4 µg/mL. For the same molecule, the IC50 in the series on HepG2 [18] and with Jurkat [22] was more than 100 µM each time. Besides, the inhibition at 100 µM was -4.7% with HepG2 [19] and 18.4% in the series on Jurkat [23]. The IC50 at 24 h in series [20] was more than 100 µM. Moreover, the inhibition at 24 h, 100 µM in series [21] was 42.7%.

The values are drawn from ChEMBL document CHEMBL5518248, “Design, Synthesis, and Biological Evaluation of Novel Arylomycins against Multidrug-Resistant Gram-Negative Bacteria” (J Med Chem, 2024).
